# In patent publication US20200368315A1, “ANTIMICROBIAL PEPTIDES AND ADMIXTURES THEREOF SHOWING ANTIMICROBIAL ACTIVITY AGAINST GRAM-NEGATIVE PATHOGENS” (priority 2017, published 2020):
# “And” between values parts separate entries of the source, which are not always exact repeats. Equal entries are not always repeated. Where two headings read alike, the source gives them in different places.
# Key:
# E. aerogenes LMG 02094 [1] = type: cell-based, Enterobacter aerogenes
# Excerpt: (§1) The test of synergistic effect was processed by conducting standard chequerboard broth microdilution assays. Nisin (Drug X) was loaded two fold serially diluted from row 1 to 10 in X-axis while GNPs (Drug Y) were loaded in eight two fold serially diluted concentrations from line A to H in Y-axis (FIG. 1). The original concentrations of peptides were MICs of each. Row 11 are used as growth control with no peptide was included, while row 12 with MHB medium-only wells was included as a sterility control as referred before. 50 uL fresh bacterial suspension was added to well 1-11 and final volume of each well on the plate is 100 uL.
# (§2) To determine whether the combination therapy is additive, synergistic or antagonistic, fractional inhibitory concentration (FIC) indices were calculated. FICI=FICa+FICb=MICac/MICa+MICbc/MICb. The MICa/MICb is the MIC of compound A/B alone. MICac is the MIC of compound A in combination with compound B and MICbc is the MIC of compound B when it was combination with compound A. […]. FICa is FIC of compound A while FICb is FIC of compound B. The FICI is interpreted as follows: synergistic, FICI≤0.5; additive, 0.5<FICI<1; indifferent, 1<FICI<2; antagonistic, FICI>2.
# K. pneumoniae LMG20218 [2] = experiment: microbe, parasite or virus in culture; type: cell-based, Klebsiella pneumoniae; settings: LMG20218
# Method: (§3) Escherichia coli, Klebsiella pneumoniae, Pseudomonas aeruginosa, Acinetobacter baumannii, Enterobacter aerogenes were grown in Luria-Bertani (LB) broth shaken (200 rpm) or on LB agar at 37° C. […] MICs tests were performed in duplicate by a liquid growth inhibition microdilution assays in sterilized polypropylene microtiter plates according to Wiegand and […] [27]. […] The suspension was diluted in a ratio of 1:100 using Mueller Hinton Broth (MHB) and the final inoculum is 5*10^5 CFU/mL. […] The antimicrobials were diluted serially by 1/2 one by one and 50 uL diluted bacterial suspension were added to each well to make the final volume to be 100 uL. Growth control was accomplished by remove 10 uL from well 11 and dilute 1000 times to plate 1/10 suspension on the solid medium. […] The number of colonies on the control agar plate should be around 50 to ensure the concentration of the inoculum and the effectiveness of the experiment. The lowest concentration of the antimicrobials that inhibits visible growth of the indicator is identified as MIC.
# P. aeruginosa LMG 6395 [3] = type: cell-based, Pseudomonas aeruginosa
# Excerpt: as §1, §2
# P. aeruginosa LMG 6395 [4] = experiment: microbe, parasite or virus in culture; type: cell-based, Pseudomonas aeruginosa; settings: LMG 6395
# Method: as §3
# E. aerogenes LMG 02094 [5] = experiment: microbe, parasite or virus in culture; type: cell-based, Enterobacter aerogenes; settings: LMG 02094
# Method: as §3
# E. coli LMG15862 [6] = tested on: E. coli LMG15862
# Method: (§4) The test of synergistic effect was processed by conducting standard chequerboard broth microdilution assays. […] Row 11 are used as growth control with no peptide was included, while row 12 with MHB medium-only wells was included as a sterility control as referred before. 50 uL fresh bacterial suspension was added to well 1-11 and final volume of each well on the plate is 100 uL.
# (§5) The test of synergistic effect was processed as method 1.4.
# as §2
# P. aeruginosa LMG 6395 [7] = tested on: P. aeruginosa LMG 6395
# Method: as §4, §5, §2
# K. pneumoniae LMG20218 [8] = tested on: K. pneumoniae LMG20218
# Method: as §4, §5, §2
# E. aerogenes LMG 02094 [9] = tested on: E. aerogenes LMG 02094
# Method: as §4, §5, §2
# A. baumannii LMG01041 [10] = settings: MIC of GNP alone
# Method: as §4, §5, §2
# E. coli LMG15862 [11] = experiment: microbe, parasite or virus in culture; type: cell-based, Escherichia coli
# Method: as §3
# A. baumannii LMG01041 [12] = experiment: microbe, parasite or virus in culture; type: cell-based, Acinetobacter baumannii; settings: LMG01041
# Method: as §3
# A. baumannii LMG01041 [13] = type: cell-based, Acinetobacter baumannii
# Excerpt: as §1, §2
# K. pneumoniae LMG20218 [14] = type: cell-based, Klebsiella pneumoniae
# Excerpt: as §1, §2
# E. coli LMG15862 [15] = type: cell-based, Escherichia coli
# Excerpt: as §1, §2
# L. lactis MG1363 = settings: MG1363
# [16] = MIC of GNP when used with the MICac concentration of nisin
# [17] = MIC of nisin in combination with the GNP at the MICbc concentration
# [18] = MIC of GNP in combination with vancomycin at the MICac concentration
# [19] = MIC of vancomycin in combination with the GNP at the MICbc concentration
compound,measurement,setting,value
CC[C@H](C)[C@H](NC(=O)[C@H](CCCNC(=N)N)NC(=O)[C@H](CCC(N)=O)NC(=O)[C@@H](NC(=O)[C@@H](NC(=O)[C@@H](N)CCCNC(=N)N)[C@@H](C)CC)C(C)C)C(=O)N[C@@H](CCCCN)C(=O)N[C@@H](CCCCN)C(=O)N[C@@H](Cc1c[nH]c2ccccc12)C(=O)N[C@@H](CC(C)C)C(=O)N[C@@H](CCCNC(=N)N)C(N)=O [GNP-8],MICb,E. aerogenes LMG 02094 [1]; MIC of GNP alone,128 µM
same,MICbc,E. aerogenes LMG 02094 [1]; [16],1 µM
same,MICac,E. aerogenes LMG 02094 [1]; [17],4 µM
same,MIC value,K. pneumoniae LMG20218 [2],32 µM
same,MICb (MIC of GNP alone),K. pneumoniae LMG20218 [2],32 µM
same,MICb,P. aeruginosa LMG 6395 [3]; MIC of GNP alone,16 µM
same,MICbc,P. aeruginosa LMG 6395 [3]; [16],0.5 µM
same,MICac,P. aeruginosa LMG 6395 [3]; [17],4.5 µM
same,MIC value,P. aeruginosa LMG 6395 [4],16 µM
same,MICb (MIC of GNP alone),P. aeruginosa LMG 6395 [4],16 µM
same,MIC value,E. aerogenes LMG 02094 [5],128 µM
same,MICb (MIC of GNP alone),E. aerogenes LMG 02094 [5],128 µM
same,MICb,E. coli LMG15862 [6]; MIC of GNP alone,12 µM
same,MICbc,E. coli LMG15862 [6]; [18],1.5 µM and 0.75 µM
same,MICac,E. coli LMG15862 [6]; [19],4 µM and 8 µM
same,MICb,P. aeruginosa LMG 6395 [7]; MIC of GNP alone,16 µM
same,MICbc,P. aeruginosa LMG 6395 [7]; [18],2 µM and 1 µM
same,MICac,P. aeruginosa LMG 6395 [7]; [19],8 µM and 16 µM
same,MICb,K. pneumoniae LMG20218 [8]; MIC of GNP alone,32 µM
same,MICbc,K. pneumoniae LMG20218 [8]; [18],2 µM and 1 µM
same,MICac,K. pneumoniae LMG20218 [8]; [19],4 µM and 8 µM
same,MICb,E. aerogenes LMG 02094 [9]; MIC of GNP alone,128 µM
same,MICbc,E. aerogenes LMG 02094 [9]; [18],8 µM and 16 µM
same,MICac,E. aerogenes LMG 02094 [9]; [19],12 µM and 6 µM
same,MICb,A. baumannii LMG01041 [10],>64 µM
same,MICb (GNP concentration when used alone),"E. coli LMG15862 [11]; L-form GNP, E. coli LMG15862, Table 6",12 µM
same,MIC value,E. coli LMG15862 [11]; LMG15862,12 µM
same,MIC value,A. baumannii LMG01041 [12],>64 µM
same,MICb (MIC of GNP alone),A. baumannii LMG01041 [12],>64 µM
same,MICb,A. baumannii LMG01041 [13]; MIC of GNP alone,>64 µM
same,MICbc,A. baumannii LMG01041 [13]; [16],4 µM
same,MICac,A. baumannii LMG01041 [13]; [17],0.19 µM
same,MICb,K. pneumoniae LMG20218 [14]; MIC of GNP alone,32 µM
same,MICbc,K. pneumoniae LMG20218 [14]; [16],1 µM
same,MICac,K. pneumoniae LMG20218 [14]; [17],0.75 µM
same,MICb,E. coli LMG15862 [15]; MIC of GNP alone,12 µM
same,MICbc,E. coli LMG15862 [15]; [16],1.5 µM
same,MICac,E. coli LMG15862 [15]; [17],1.5 µM
same,MIC value of antimicrobial compounds alone,L. lactis MG1363,24 µM
